Laboratory results as given in patent US20110306071A1, “Compositions and Methods for Identifying Substrate Specificity of Inhibitors of Gamma Secretase” (ELAN PHARMACEUTICALS, INC., priority 2007, published 2011).

Columns and labels:
[1] = target: T1, gamma secretase γ and ε cleavage of Fas-APPsw-DD (Homo sapiens, UniProt P49768); experiment: Concurrent Aβ and AICD ELISA in Fas-APPsw-DD transfected 293 cells (APP γ versus ε cleavage); assay type: cell-based
T1 construct: active gamma secretase is endogenously and constitutively produced by the cell cultures; endogenous in cells; host or cells: HEK 293, transfected with Fas-APPsw-DD
Protocol: Polyclonal antibody AICD ELISA. HEK 293 cells were grown under standard conditions to ˜90% confluence. Cells were harvested, counted, and subsequently plated onto PDL-coated 60 mm dishes at 2×10^6 cells/dish in 5 mL media. The cells were allowed to settle onto the dishes for ˜4 hours. Transfection of various construct into cells was performed using standard techniques using Lipofectamine 2000™ (LF2K) (Invitrogen). Briefly, 2 μg plasmid DNA and 4 μL LF2K were diluted into separate 150 μL aliquots of Opti-MEM (Gibco), and allowed to stand for 10-15 minutes. The two aliquots were then mixed, and the DNA:Lipid complex allowed to form for about 20 minutes. The 300 μL DNA:Lipid complex was then added to the cells in 3 mL fresh media, and incubated overnight. In order to administer potential or known gamma secretase inhibitor compounds to cells, the transfected cells were harvested, replated into PDL-coated 24-well plates at 200,000 cells/well, and allowed to settle onto the plates for ˜4 hours. Cells were washed, and 500 μL fresh media added. […]
The term ‘non-selective’ in this instance refers to lack of selectivity for cell Aβ over Notch signaling (or GammaAPP over GammaNotch). […] The calculated γ/ε selectivity of the non-selective compounds (FIG. 11 and Table I) were 0.7, 1.1, 1.8 and 1.9 for DAPT, 44989, 46719 and the Merck compound, respectively. […]

[2] = target: T2, gamma secretase cleavage of C99GVP (AICD-GVP) (Homo sapiens, UniProt P49768); experiment: Luciferase reporter gene assay, AICD-GVP transactivation from C99GVP in HEK293 cells; assay type: cell-based; settings: C99-GVP, FIG. 5C
T2 construct: active gamma secretase is endogenously and constitutively produced by the cell cultures; endogenous in cells; host or cells: HEK 293, co-transfected with C99GVP, pG5E1B-luc and pCMV-β-gal
Protocol: Luciferase Reporter Gene Assay: Luciferase reporter assays were carried out 48 hr post-transfection. Cells seeded on 96-well plates (BD Biosciences) were washed once with PBS and harvested in 20 μl of reporter lysis buffer (Promega) per well. After adding 100 μl of luminescent substrate (Promega), the luciferase activity was measured with a MicroLumatPlus microplate luminometer (Berthold Technologies). The β-galactosidase activity was measured similarly, using a luminescent β-galactosidase substrate (BD Biosciences). As a control for transfection efficiency and general effect on transcription, the luciferase activity was normalized by measuring β-galactosidase activity on a duplicate plate. All measurements were done in triplicate and repeated at least three times.
Luciferase Assay. After confirming AICD-GVP generation in HEK cells, its ability to transactivate a luciferase reporter gene that contains Gal4 response elements in the upstream activation sequence (UAS) was tested. […] Some residual luciferase activity remained in the presence of excess gamma secretase inhibitors, even though identical treatment completely abolished AICD production as measured by Western blot (FIG. 5B). […]

[3] = system: gamma secretase (secreted Aβ40 and Aβ42); experiment: Aβ sandwich ELISA of media from C99GVP or APP transfected HEK cells treated with inhibitors; assay type: cell-based, Human
Protocol: Inhibitor Treatment of Transfected HEK Cell: The transition state analogue gamma secretase inhibitor-L685,458 (Sigma) and the peptidomimetic inhibitor-DAPT (Dovey, H. F., et al., J Neurochem., 2001; 76:173-181) were dissolved in DMSO to make 20 mM stocks. Similarly, a number of Elan's series of sulfonamide inhibitors were prepared and used as described herein (see, also FIGS. 11-14). Inhibitors were added to cell cultures (e.g., HEK) at the indicated final concentration, and the treated cells were harvested 48 h post-transfection. The metallo-proteinase inhibitor TAPI-1 (Calbiochem) was used at a final concentration of 40 μM. The Aβ-degrading enzyme inhibitors, Bacitracin (Calbiochem) and phosphoramidon (Calbiochem) were used at final concentration of 1 mg/ml and 40 μM, respectively. All inhibitor experiments were performed in triplicate and repeated at least three times.
ELISAs used to quantify different Aβ species were performed using standard techniques as described above and in (Johnson-Wood, K., et al., Proc. Natl. Acad. Sci. U.S.A., 1997; 94: 1550-1555, incorporated by reference). The Aβ40 and Aβ42 peptides in the samples were captured onto 2G3 or 21F12 antibody coated plates, respectively, and detected with a biotinylated 2H3 antibody. The fluorescence signal generated from a streptavidin-alkaline phosphatase conjugate (Roche) was measured with a CytoFlour microplate reader (Applied Biosystems). Synthetic Aβ40 or Aβ42 peptides (Anaspec) were used to generate standard curves (FIG. 10). All measurements were done in triplicate.
Next, Aβ generation was characterized from C99GVP. Wild type HEK cells and the mock-transfection control secreted little Aβ into the conditioned media (FIG. 5D, lane 1). In contrast, transient expression of C99GVP led to robust Aβ production, as measured by IP/Western blot (FIG. 5D) and ELISAs that detect Aβ 40 and Aβ42 species, respectively ([…], top panel). […] Finally, we compared the Aβ-lowering potency of two inhibitors, using either C99GVP or the wild type APP as substrate. As determined by ELISA, the respective IC50 values for the two substrates are essentially identical (FIG. 5E).

[4] = system: nuclear AICD-GVP in COS-7 cells; experiment: Immunostaining, subcellular distribution of AICD-GVP in transfected COS-7 cells; assay type: cell-based
Protocol: Immunostaining: Wild type or transiently transfected COS-7 cells (ATCC) were fixed at room temperature with 2% paraformaldehyde in PBS for 20 min and subsequently permeabilized with 0.2% Triton X-100 in PBS for 10 min. C99GVP and mutant substrates as well as AICD-GVP were detected by incubating the samples sequentially with polyclonal anti-VP16 for 2 h and Rhodamine-conjugated donkey anti-goat secondary antibody (Jackson Laboratory Cat. #705-165-003) for 1 h. All staining was visualized on a Bio-Rad MRC 1024ES confocal microscope (Bio-Rad) and captured with a coupled CCD camera.

**Q.** Which “γ/ε selectivity = IC50 AICD/IC50 Aβ” value [1] does the source give for `C[C@H](NC(=O)Cc1cc(F)cc(F)c1)C(=O)N[C@H](C(=O)OC(C)(C)C)c1ccccc1` [DAPT] here?
**A.** 0.7

**Q.** And the “luciferase reporter transactivation by AICD-GVP” value [2]?
**A.** block luciferase reporter transactivation

**Q.** And the “secreted Aβ (Aβ40 and Aβ42)” value ([3]; 5 μM, 24 h, FIG. 5D)?
**A.** block secreted Aβ

**Q.** And the “Aβ potency (IC50) with C99GVP versus native APP substrate” value ([3]; FIG. 5E)?
**A.** equal Aβ potency

**Q.** And the “nuclear staining of AICD-GVP” value ([4]; C99GVP transfected COS-7 cells, 5 μM, FIG. 5F)?
**A.** abolished

**Q.** And the “nuclear staining of JMD chimeras” value ([4]; JMD chimeras in COS-7 cells, FIG. 6G)?
**A.** abolished
